From ChEMBL document CHEMBL1128909, “Catechol based inhibitors of 15-lipoxygenase” (Bioorg Med Chem Lett, 1996) come the findings set out here.

The target of test [1] is T1, Polyunsaturated fatty acid lipoxygenase ALOX12 (Homo sapiens, UniProt P18054).
T1 sequence (P18054 whole entry): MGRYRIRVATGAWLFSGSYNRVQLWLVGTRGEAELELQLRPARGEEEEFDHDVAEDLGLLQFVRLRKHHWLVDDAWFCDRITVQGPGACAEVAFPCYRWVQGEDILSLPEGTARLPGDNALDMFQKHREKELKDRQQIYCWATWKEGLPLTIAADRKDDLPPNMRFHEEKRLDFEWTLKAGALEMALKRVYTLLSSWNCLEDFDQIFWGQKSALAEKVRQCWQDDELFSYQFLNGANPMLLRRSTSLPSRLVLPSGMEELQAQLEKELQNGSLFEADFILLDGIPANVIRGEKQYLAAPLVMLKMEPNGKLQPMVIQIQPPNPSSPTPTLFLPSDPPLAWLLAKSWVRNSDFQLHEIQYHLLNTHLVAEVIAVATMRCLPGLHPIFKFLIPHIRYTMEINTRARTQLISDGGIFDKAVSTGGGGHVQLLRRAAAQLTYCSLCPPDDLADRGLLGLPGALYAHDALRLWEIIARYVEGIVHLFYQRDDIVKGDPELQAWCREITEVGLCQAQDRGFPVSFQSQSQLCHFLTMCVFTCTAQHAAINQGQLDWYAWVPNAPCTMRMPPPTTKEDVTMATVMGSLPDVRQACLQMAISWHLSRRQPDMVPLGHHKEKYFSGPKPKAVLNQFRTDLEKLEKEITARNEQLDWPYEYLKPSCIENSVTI
In words: Inhibitory activity against human platelet 12-lipoxygenase.

The target of test [2] is T2, Polyunsaturated fatty acid 5-lipoxygenase (Rattus norvegicus, UniProt P12527).
T2 sequence (P12527 whole entry): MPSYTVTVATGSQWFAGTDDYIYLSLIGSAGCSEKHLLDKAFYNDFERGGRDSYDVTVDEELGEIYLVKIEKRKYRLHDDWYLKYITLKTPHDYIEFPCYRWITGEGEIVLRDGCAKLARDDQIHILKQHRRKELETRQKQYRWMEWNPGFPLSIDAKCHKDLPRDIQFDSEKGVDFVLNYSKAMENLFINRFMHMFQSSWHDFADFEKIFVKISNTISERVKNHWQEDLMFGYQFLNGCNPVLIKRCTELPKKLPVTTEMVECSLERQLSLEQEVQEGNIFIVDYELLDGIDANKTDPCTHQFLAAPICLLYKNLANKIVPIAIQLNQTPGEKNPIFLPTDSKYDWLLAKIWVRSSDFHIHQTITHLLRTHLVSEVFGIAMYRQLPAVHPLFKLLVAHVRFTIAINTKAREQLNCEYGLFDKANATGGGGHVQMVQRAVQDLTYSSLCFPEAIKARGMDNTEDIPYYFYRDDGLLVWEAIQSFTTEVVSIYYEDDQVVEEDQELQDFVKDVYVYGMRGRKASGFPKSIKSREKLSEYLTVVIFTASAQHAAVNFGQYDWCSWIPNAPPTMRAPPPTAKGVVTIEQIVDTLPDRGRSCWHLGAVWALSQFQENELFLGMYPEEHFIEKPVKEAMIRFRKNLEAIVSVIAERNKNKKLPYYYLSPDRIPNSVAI
Put plainly: Inhibitory activity against rat basophilic leukemia cell 5-lipoxygenase (5-LO).

For orientation: IC50 means the concentration that gives 50% inhibition. Higher therefore signals weaker potency in that assay.

SMILES strings stand for the structures.

In the case of `O=C(Nc1ccc(CCc2ccc(O)c(O)c2)cc1)c1ccccc1O`, the half-inhibitory concentration (IC50) came out at 5000 nM in test [1] and 280 nM in test [2].
